Results on eight compounds are retold here after US11530317B2, “Deep eutectic solvent compositions” (SABIC GLOBAL TECHNOLOGIES B.V., priority 2017, dated 2022).

Data set [1] is described as follows: Quantification of solubility by visual inspection for undissolved material. Format: physicochemical. Particulars: for Enhancement factor: solubility in ChCl-urea DES relative to aqueous solution; for Solubility in water: obtained in this work.
Procedure: Solubility was determined through adding an amount of CB[n] n=6, 7 or 8 or x-CD (where x=α, β or γ) to 1 mL of solvent followed by vortexing and heating the mixture to 80° C. The mixture was inspected visually to determine the presence of undissolved material. The mixture was then cooled to room temperature and the mixture re-examined to determine the presence of any undissolved material.
Data set [2] in a line: UV/vis probing of host-guest binding in ChCl-urea DES. The method, then: Methylviologen dichloride (2.0 mg, […], 1 eq.) was dissolved in ChCl:urea (1 mL) by vortexing and heating to 60° C. The methylviologen radical was formed by addition of a significant excess of reducing agent, sodium hydrosulfite, approx. 20 molar equivalents. To this solution CB[7] (9.0 mg, […], 1 eq.) was added and dissolved through stirring at 60° C. A sample of this solution (0.1 mL) was added to ChCl-urea (1 mL) and measured by UV/vis.
Methylviologen dichloride (2.0 mg, […], 1 eq.) was dissolved in ChCl:urea (1 mL) by vortexing and heating to 60° C. The methylviologen radical was formed by addition of a significant excess of reducing agent, sodium hydrosulfite, approx. 20 molar equivalents. To this solution CB[8] (10.1 mg, […], 1 eq. or 20.2 mg, 15.6 mmol, 2 eq.) was added and dissolved through stirring at 60° C. 0.1 ml of this solution were added to 1 ml of ChCl-urea and measured by UV/vis.
To probe the binding of γ-CD to MV^.+ a high concentration of MV^.+ was required on account of the lower binding constants of CDs compared to CB[n]. A solution of MV^.+ (15 mg/mL) was prepared (as described for CB[7] above) and to this γ-CD (170 mg, 2 equivalents) was added.

Data set [3] can be described thus: Solubility of methylviologen dichloride in ChCl-urea. The settings on record: ChCl-urea DES. Format: physicochemical. From the text:
However, it should be noted that other anions, such as [PF6]^− and I^− were also found to be soluble and may also be used.

Data set [4] in a line: Purging of MV^+. solutions (DES or water) with air, monitored by UV/vis at 609 nm. Format: physicochemical.
Data set [5] in a line: Photochemical switching of MV in DES (solar light simulator, then air purge). Format: physicochemical. Particulars: photogenerated radical in DES, purging with air. The method, then:
DES MV^2+ solution (1.5 mL) in a quartz cuvette (1 cm path length, Hellma) was placed in a water bath held at 25° C. and irradiated by a solar light simulator (Newport Oriel, 100 mW cm^−2) equipped with an air mass 1.5 global filter (AM 1.5 G). IR irradiation was filtered with a water filter (10 cm path length). Samples were thermostatted at 25° C.
Stock solutions of MV^2+ in each of the three DES were prepared as follows: MV^2+ 2Cl^− (10 mg, 0.04 mmol) was added each individual DES (ChCl-urea, ChCl-glycerol and ChCl-ethylene glycol) (10 mL) separately and dissolved by heating to 80° C. for 30 min to give a colorless solution.
MV^2+ in DES (1.5 mL) was transferred to a quartz cuvette and placed in a water bath held at 25° C. in front of a solar light simulator. The sample was removed from the simulator and UV/vis spectra recorded at various time intervals to monitor the formation of MV^+..
The resultant blue MV^+. solutions were then purged with air (30 mL min^−1) using a mass flow controller (Brooks). UV/vis spectra were recorded at time intervals during the purging to monitor the disappearance of the MV^+. species.

Data set [6] in a line: Long term UV/vis measurement of MV^+. in ChCl-urea DES exposed to air. Type of data set: physicochemical. The method, then: MV^2+ 2Cl^− (1 mg, 0.0039 mmol) was added to ChCl-urea DES (10 mL) and dissolved by heating to 80° C. for 30 min to give a 0.39 mM solution. The solution was then heated to 130° C. for 2 h during which time it had turned blue. A portion (1.5 mL) of the resulting blue solution was removed, placed in a cuvette and a UV/vis spectrum was recorded.
Spectra were recorded across a 100 h period in an open cuvette.
The solution was not degassed or covered in any way nor was any attempt to keep O2 out made.

A short description of data set [7]: Cyclic voltammetry cycling stability of MV in DES in air. Type of data set: physicochemical. Particulars: DES (ChCl-urea, ChCl-ethylene glycol, ChCl-glycerol), no degassing. The method, then: Electrochemical measurements were performed in air at 40° C. using a PalmSens EmStat potentiostat. A three-electrode cell was used, equipped with a glassy carbon working electrode (3 mm diameter, BASi), a Ag/AgCl reference electrode (BASi) and a platinum mesh counter electrode (Sigma-Aldrich). The working electrode was cleaned before experiments by mechanically polishing in alumina (Buehler, Micropolish, 1 μm) on a polishing cloth (Buehler, Microcloth).
Cyclic voltammetry (CV) was recorded at 0.1 V s^−1 scan rate and 5.0 mM MV^2+ 2Cl^− concentration. FcMeOH (5 mM) was used as an internal reference. Analyte solutions were prepared by heating the respective DES with MV^2+ 2Cl^− and FcMeOH to 80° C. for 30 min.
None of the solutions were degassed before measurement nor was any attempt made to exclude oxygen or air.

The conditions of data set [8]: values taken from Sabadini et al.; cited from earlier work.
The mark [9] stands for this setting: ChCl-urea DES, room temperature.

Values after ≈ are worked out from the molar mass of the structure shown. Read-outs that look alike come from different tables or passages of the source.

As to `O=C1N2CN3C(=O)N4CN5C(=O)N6CN7C(=O)N8CN9C(=O)N%10CN1C1C2N2CN%11C(=O)N(CN%12C(=O)N(CN%13C(=O)N(CN%14C(=O)N(CN1C2=O)C%10C9%14)C8C7%13)C6C5%12)C4C3%11` (stereo not drawn) [CB[5]], in data set [1] (setting [9]), the “DES solubility (maximum solubility)” value was “approx. 25 mg/mL”.

For `O=C1N2CN3C(=O)N4CN5C(=O)N6CN7C(=O)N8CN9C(=O)N%10CN%11C(=O)N%12CN1C1C2N2CN%13C(=O)N(CN%14C(=O)N(CN%15C(=O)N(CN%16C(=O)N(CN%17C(=O)N(CN1C2=O)C%12C%11%17)C%10C9%16)C8C7%15)C6C5%14)C4C3%13` (stereo not drawn) [CB[6]], the maximum solubility in data set [1] (ChCl-TsOH DES) is 1.0 mg/mL; in data set [1] (ChCl-urea DES) it was 1.0 mg/mL; in data set [1] (H2O), below 0.1 mg/mL; in data set [1] (HCl (3M)) it was 15.0 mg/mL; in data set [1] (NaCl (0.1M)), 4.6 mg/mL; in data set [1] (Phosphate buffer (pH = 7.0)) it was 17.4 mg/mL. Moreover, the “DES solubility (maximum solubility)” value in data set [1] (setting [9]) was determined as 1.0 mg/mL. The Enhancement factor in data set [1] was 10. For the same compound, the Solubility in water in data set [1] (water) is recorded as below 0.1 mg/mL.

Consider `O=C1N2CN3C(=O)N4CN5C(=O)N6CN7C(=O)N8CN9C(=O)N%10CN%11C(=O)N%12CN%13C(=O)N%14CN1C1C2N2CN%15C(=O)N(CN%16C(=O)N(CN%17C(=O)N(CN%18C(=O)N(CN%19C(=O)N(CN%20C(=O)N(CN1C2=O)C%14C%13%20)C%12C%11%19)C%10C9%18)C8C7%17)C6C5%16)C4C3%15` (stereo not drawn) [CB[7]], for which the maximum solubility in data set [1] (ChCl-TsOH DES) was 18.0 mg/mL; in data set [1] (ChCl-urea (1:2), room temperature), 15.0 mg cm^−3; in data set [1] (ChCl-urea DES) it was 17.0 mg/mL; in data set [1] (H2O) it was 4.4 mg/mL; in data set [1] (HCl (3M)), 100 mg/mL; in data set [1] (NaCl (0.1M)), 14.8 mg/mL. Moreover, the maximum solubility in data set [1] (Phosphate buffer (pH = 7.0)) was 19.8 mg/mL. Moreover, in data set [1] (setting [9]), the “DES solubility (maximum solubility)” value came to 17 mg/mL. Moreover, in data set [1], the Enhancement factor is reported as 3.9. Further, in data set [1] (water), the “maximum solubility in water” value is 4.4 mg cm^−3. This compound yielded a Solubility in water in data set [1] (water) of 4.4 mg/mL (≈ 3.78 mM). Also, in data set [2], the “host-guest binding with MV^.+ by UV/vis” value was “binding of MV^.+ is occurring”.

For `C[n+]1ccc(-c2cc[n+](C)cc2)cc1.[Cl-].[Cl-]` [MV, N,N′-dimethyl-4,4′-bipyridinium dichloride], the “solubility in ChCl-urea” value in data set [3] is given as “soluble”. Further, the “radical lifetime upon purging with air” value in data set [4] (ChCl-ethylene glycol DES (36 cP)) was “shortest radical lifetime”; in data set [4] (ChCl-glycerol DES (376 cP)), 900 min; in data set [4] (ChCl-urea DES (632 cP)) it was 400 min. Besides, the “time to complete quenching” value in data set [4] (aqueous solution, purging with air 0.1 mL min^−1) is “less than 4 min”. The “persistence of radical species” value in data set [4] (in DES, purging with air 30 mL min^−1) was 2 to 15 h. Besides, in data set [5], the “time to revert to colourless” value is given as at most 150 s. Besides, the “change in absorbance at 609 nm” value in data set [6] (ChCl-urea DES, exposed to air, 100 h period) is “no change in absorbance at 609 nm”. For the same compound, in data set [6] (DES solutions prepared and stored in air), the “time solutions remain blue” value is reported as above 6 months. This compound gave a forecast lifetime in data set [6] (in DES, in air) above 6 months. Besides, the electrochemical cycling stability in data set [7] is given as at least 100 cycles.

Consider `OC[C@H]1O[C@@H]2O[C@H]3[C@H](O)[C@@H](O)[C@@H](O[C@H]4[C@H](O)[C@@H](O)[C@@H](O[C@H]5[C@H](O)[C@@H](O)[C@@H](O[C@H]6[C@H](O)[C@@H](O)[C@@H](O[C@H]7[C@H](O)[C@@H](O)[C@@H](O[C@H]1[C@H](O)[C@H]2O)O[C@@H]7CO)O[C@@H]6CO)O[C@@H]5CO)O[C@@H]4CO)O[C@@H]3CO` [α-CD], for which the “DES solubility (maximum solubility)” value in data set [1] (setting [9]) is above 500 mg/mL. The Enhancement factor in data set [1] is above 3.5. In addition, the Solubility in water in data set [8] was 129.5 mg/mL (≈ 133 mM).

Consider `OC[C@H]1O[C@@H]2O[C@H]3[C@H](O)[C@@H](O)[C@@H](O[C@H]4[C@H](O)[C@@H](O)[C@@H](O[C@H]5[C@H](O)[C@@H](O)[C@@H](O[C@H]6[C@H](O)[C@@H](O)[C@@H](O[C@H]7[C@H](O)[C@@H](O)[C@@H](O[C@H]8[C@H](O)[C@@H](O)[C@@H](O[C@H]1[C@H](O)[C@H]2O)O[C@@H]8CO)O[C@@H]7CO)O[C@@H]6CO)O[C@@H]5CO)O[C@@H]4CO)O[C@@H]3CO` [β-CD], for which the “CD content of the solution at that solubility” value in data set [1] (ChCl-urea DES) was around 50 wt %. Moreover, the “DES solubility (maximum solubility)” value in data set [1] (setting [9]) was above 1000 mg/mL. Also, the Enhancement factor in data set [1] is reported as above 55.

In the case of `OC[C@H]1O[C@@H]2O[C@H]3[C@H](O)[C@@H](O)[C@@H](O[C@H]4[C@H](O)[C@@H](O)[C@@H](O[C@H]5[C@H](O)[C@@H](O)[C@@H](O[C@H]6[C@H](O)[C@@H](O)[C@@H](O[C@H]7[C@H](O)[C@@H](O)[C@@H](O[C@H]8[C@H](O)[C@@H](O)[C@@H](O[C@H]9[C@H](O)[C@@H](O)[C@@H](O[C@H]1[C@H](O)[C@H]2O)O[C@@H]9CO)O[C@@H]8CO)O[C@@H]7CO)O[C@@H]6CO)O[C@@H]5CO)O[C@@H]4CO)O[C@@H]3CO` [γ-CD], the “CD content of the solution at that solubility” value in data set [1] (ChCl-urea DES) is around 50 wt %. The “DES solubility (maximum solubility)” value in data set [1] (setting [9]) is above 1000 mg/mL. Besides, the Enhancement factor in data set [1] is listed as above 4. Also, in data set [2], the “host-guest binding with MV^.+ by UV/vis” value is “binding behaviour similar to the CB[8] system occurred”. Further, the Solubility in water in data set [8] is reported as 249.2 mg/mL (≈ 192 mM).

As to Cucurbit[8]uril [CB[8]], the maximum solubility in data set [1] (ChCl-TsOH DES) was 3.1 mg/mL; in data set [1] (ChCl-urea DES), 2.0 mg/mL; in data set [1] (H2O) it was below 0.2 mg/mL; in data set [1] (HCl (3M)), 1.8 mg/mL; in data set [1] (NaCl (0.1M)), 0.1 mg/mL; in data set [1] (Phosphate buffer (pH = 7.0)) it was 0.3 mg/mL. Besides, the “DES solubility (maximum solubility)” value in data set [1] (setting [9]) turned out to be 2 mg/mL. For the same compound, the Enhancement factor in data set [1] was found to be 10. This compound also returned a Solubility in water in data set [1] (water) below 0.2 mg/mL. Besides, in data set [2], the “host-guest binding with MV^.+ by UV/vis” value is on record as “formation of a 2:1 complex”.
